Laboratory results published in patent publication US6979686B1, “Substituted pyrazoles as p38 kinase inhibitors” (Pharmacia Corporation, priority 2001, dated 2005).
Like-named read-outs stand apart in the source and are kept apart here.

Experiments:
human p38 kinase alpha = target: T1, human p38 kinase alpha (Homo sapiens, UniProt Q16539); test: p38 kinase in vitro assay, phosphorylation of biotinylated PHAS-I with 32P-ATP; format: biochemical; conditions: for P38 alpha kinase IC50, uM or % inhib @ conc. (uM): % inhib / P38 alpha kinase % inhib @ conc.: @ 10.0 uM; for P38 alpha kinase % inhib @ conc. (uM) / inhibition at 1 µM: @ 1.0 uM; for inhibition at 1 µM: read-out: P38 alpha kinase % inhib @ conc.
T1 construct: GST (N, cleaved yes); made in house; host or cells: E. coli DH10B

[1] = tested on: TNF-α, U937 human histiocytic lymphoma cell line; test: LPS stimulation of TNF production by U937 cells; format: cell-based; conditions: for U937 Cell IC50, uM or % inhib @ conc. (uM): % inhib / U937 Cell % inhib @ conc.: @ 10.0 uM; for U937 Cell % inhib @ conc. (uM): @ 1.0 uM; for inhibition at 1 µM: U-937, @ 1.0 uM
Protocol: Maintenance and Differentiation of the U937 Human Histiocytic Lymphoma Cell Line:
Fifty million cells in 100 ml media were induced to terminal monocytic differentiation by 24 hour incubation with 20 ng/ml phorbol 12-myristate 13-acetate (Sigma). The cells were washed by centrifugation (200×g for 5 min) and resuspended in 100 ml fresh medium. After 24-48 hours, the cells were harvested, centrifuged, and resuspended in culture medium at 2 million cells/ml.
LPS Stimulation of TNF Production by U937 Cells:
Compounds were prepared as 10 mM stock solutions in DMSO and diluted in culture medium to yield a final DMSO concentration of 0.1% in the cell assay. LPS (E coli, 100 ng/ml final concentration) was then added at a volume of 0.02 ml. After 4 hour incubation at 37° C., the amount of TNF-α released in the culture medium was quantitated by ELISA. Inhibitory potency is expressed as IC50 (μM).
In vitro whole cell assay for measuring the ability of the compounds to inhibit TNF production in human U937 cells stimulated with LPS are shown in the column identified as: • “U937 Cell IC50, uM or % inhib @ conc., (uM)”

[2] = TNF production, U937 cells stimulated with LPS
[3] = TNF production, LPS-stimulated U937 cells
[4] = in vitro P38-alpha kinase inhibition, read-out: P38 alpha kinase IC50
[5] = Homo sapiens, TNF production, U937 cells stimulated with LPS, read-out: U937 Cell % inhib @ conc.
[6] = in vitro P38-alpha kinase, read-out: P38 alpha kinase IC50
[7] = Homo sapiens, U-937, TNF production, human U937 cells stimulated with LPS, read-out: U937 Cell IC50

T1 sequence (Q16539 whole entry): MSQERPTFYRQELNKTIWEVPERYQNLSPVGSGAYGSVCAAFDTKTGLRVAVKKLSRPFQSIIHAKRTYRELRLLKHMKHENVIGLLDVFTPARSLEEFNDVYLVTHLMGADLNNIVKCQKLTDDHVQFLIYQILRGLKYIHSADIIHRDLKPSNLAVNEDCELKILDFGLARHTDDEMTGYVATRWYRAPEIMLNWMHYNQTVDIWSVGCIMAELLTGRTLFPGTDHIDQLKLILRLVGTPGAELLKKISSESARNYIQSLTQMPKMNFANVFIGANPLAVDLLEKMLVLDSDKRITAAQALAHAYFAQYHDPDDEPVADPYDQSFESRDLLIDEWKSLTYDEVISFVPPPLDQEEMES

In the case of `Cc1c(-c2ccncc2)c(-c2ccc(F)cc2)nn1CC(=O)N(C)CCN1CCOCC1` [Example B-2395], the “P38 alpha kinase IC50, uM or % inhib @ conc. (uM): % inhib” value (human p38 kinase alpha) is reported as 32.0% @ and the “U937 Cell IC50, uM or % inhib @ conc. (uM): % inhib” value [1, 2] is reported as 28.0% @.
In the case of `O=S(=O)(C=Cc1ccccc1)NCCc1[nH]nc(-c2ccc(F)cc2)c1-c1ccncc1` [Example B-1016], the “P38 alpha kinase % inhib @ conc. (uM)” value (human p38 kinase alpha) is reported as 58.0% @ and the “U937 Cell % inhib @ conc. (uM)” value [1, 2] is reported as 10.0% @.
For `COC(=O)C(C)NC(=O)Cn1nc(-c2ccc(F)cc2)c(-c2ccncc2)c1C` (centres unmarked) [Example B-2363], the “P38 alpha kinase % inhib @ conc.” value (human p38 kinase alpha) was 44.0% @ and the “U937 Cell % inhib @ conc.” value [1, 3] was 1.0% @.
For `Cc1[nH]nc(-c2ccc(F)c(F)c2)c1-c1ccncc1` [Example A-46], the IC50 (human p38 kinase alpha; activated human p38 kinase alpha, PHAS-I substrate, 50 μM unlabeled ATP, read-out: p38 kinase IC50) was less than 100 nM and the IC50 ([1]; Table 5, LPS-stimulated U937 cells, TNF-α, read-out: U937 Cell Assay IC50) was 329 nM.
For `CNC(=O)CCC(NC(=O)C1CC1)c1[nH]nc(-c2ccc(F)cc2)c1-c1ccncc1` (centres unmarked) [Example B-0866], the IC50 (human p38 kinase alpha; [4]) was 1380 nM and the inhibition at 1 µM [1, 5] was 28%.
In the case of `CC(NC(=O)c1cccc(F)c1)c1[nH]nc(-c2ccc(F)cc2)c1-c1ccncc1` (centres unmarked) [Example B-0694], the IC50 (human p38 kinase alpha; [4]) is reported as 620 nM and the “U937 Cell % inhib @ conc. (uM)” value ([1]; TNF production in human U937 cells stimulated with LPS) is reported as 21.0% @.
Work on `CC(NC(=O)c1cccc(Br)c1)c1[nH]nc(-c2ccc(F)cc2)c1-c1ccncc1` (centres unmarked) [Example B-0539] yielded an IC50 (human p38 kinase alpha; [4]) of 2840 nM and an inhibition at 1 µM ([1]; Homo sapiens, TNF production in human U937 cells stimulated with LPS, read-out: U937 Cell % inhib @ conc.) of 21%.
Work on `CC(NC(=O)N1CCCC1)c1[nH]nc(-c2ccc(F)cc2)c1-c1ccncc1` (centres unmarked) [Example B-0581] yielded an IC50 (human p38 kinase alpha; [4]) of 260 nM and an IC50 ([1]; Homo sapiens, U-937, TNF production in human U937 cells stimulated with LPS, read-out: U937 Cell IC50) of 2170 nM.
In the case of `Cc1c(-c2ccncc2)c(-c2ccc(F)cc2)nn1CC(=O)Nc1ccccc1Sc1ccc([N+](=O)[O-])cn1` [Example B-2457], the “P38 alpha kinase IC50, uM or % inhib @ conc. (uM): % inhib” value (human p38 kinase alpha) is reported as 90.0% @ and the “U937 Cell IC50, uM or % inhib @ conc. (uM): % inhib” value [1, 2] is reported as 18.0% @.
Molecule `O=S(=O)(NCCc1[nH]nc(-c2ccc(F)cc2)c1-c1ccncc1)c1cccc(Cl)c1Cl` [Example B-1073] has an IC50 (human p38 kinase alpha; [4]) of less than 100 nM and an inhibition at 1 µM [1, 5] of 21%.
Work on `O=C(NCCc1[nH]nc(-c2ccc(F)cc2)c1-c1ccncc1)c1ccc(F)cc1C(F)(F)F` [Example B-1139] yielded an IC50 (human p38 kinase alpha; [4]) of 41 nM and an inhibition at 1 µM [1, 5] of 29%.
With `Cc1cccc(S(=O)(=O)N2CCC(c3[nH]nc(-c4ccc(F)cc4)c3-c3ccncc3)CC2)c1` [Example B-1467] the IC50 (human p38 kinase alpha; [6]) was 1220 nM and the inhibition at 1 µM ([1]; Homo sapiens, TNF production, LPS-stimulated U937 cells, read-out: U937 Cell % inhib @ conc.) was 1%.
For `Cc1c(-c2ccncc2)c(-c2ccc(F)cc2)nn1CC(=O)N1CCCN(C)CC1` [Example B-2382], the “P38 alpha kinase % inhib @ conc.” value (human p38 kinase alpha) was 51.0% @ and the “U937 Cell % inhib @ conc.” value [1, 3] was 24.0% @.
Work on `COc1ccc(OC)c(S(=O)(=O)NCCc2[nH]nc(-c3ccc(F)cc3)c2-c2ccncc2)c1` [Example B-1085] yielded an IC50 (human p38 kinase alpha; [4]) of less than 100 nM and an inhibition at 1 µM [1, 5] of 29%.
For `COc1ccc(CC(=O)NCc2[nH]nc(-c3ccc(F)cc3)c2-c2ccncc2)cc1OC` [Example B-0034], the inhibition at 1 µM (human p38 kinase alpha) was 95% and the IC50 [1, 7] was 10000 nM.
`O=C(NCCc1[nH]nc(-c2ccc(F)cc2)c1-c1ccncc1)NCc1ccccc1` [Example B-0939] was tested, and the “P38 alpha kinase % inhib @ conc. (uM)” value (human p38 kinase alpha) was 78.0% @ and the “U937 Cell % inhib @ conc. (uM)” value [1, 2] was 14.0% @.
`O=S(=O)(NCCc1[nH]nc(-c2ccc(F)cc2)c1-c1ccncc1)c1ccc2ccccc2c1` [Example B-1068] gave an IC50 (human p38 kinase alpha; [4]) of 480 nM and an inhibition at 1 µM [1, 5] of 24%.
`O=C(c1ccc(I)cc1)N1CCC(c2[nH]nc(-c3ccc(F)cc3)c2-c2ccncc2)CC1` [Example B-1366] was tested, and the IC50 (human p38 kinase alpha; [6]) was 40 nM and the IC50 [1, 7] was 270 nM.
Molecule `O=C(NCc1[nH]nc(-c2ccc(F)cc2)c1-c1ccncc1)c1ccc([N+](=O)[O-])o1` [Example B-0031] has an inhibition at 1 µM (human p38 kinase alpha) of 94% and an inhibition at 10 µM ([1]; Homo sapiens, U-937, @ 10.0 uM, TNF production, U937 cells stimulated with LPS, read-out: U937 Cell % inhib @ conc.) of 100%.
With `COc1cc(NC(=O)CCNC(=O)Cn2nc(-c3ccc(F)cc3)c(-c3ccncc3)c2C)cc2ccccc12` [Example B-2298] the IC50 (human p38 kinase alpha; [6]) was 290 nM and the IC50 ([1]; TNF production, human U937 cells stimulated with LPS, read-out: U937 Cell IC50) was 4220 nM.
Molecule `CCS(=O)(=O)N1CCC(c2[nH]nc(-c3ccc(F)cc3)c2-c2ccncc2)CC1` [Example B-1375] has an IC50 (human p38 kinase alpha; [6]) of 10 nM and an IC50 [1, 7] of 250 nM.
Work on `O=C(NCCc1[nH]nc(-c2ccc(F)cc2)c1-c1ccncc1)c1cccc(Cl)c1Cl` [Example B-1132] yielded an IC50 (human p38 kinase alpha; [4]) of 720 nM and an inhibition at 1 µM [1, 5] of 11%.
